Measured values published in patent US20260355330A1, “CELL PENETRATING PEPTIDES AND USES THEREOF” (VECTIOPEP OÜ, priority 2022, published 2026).
“Also recorded” adds a separate entry of the source. Positions of bridges follow the written chain, without caps; N, C: chain ends. Residues, ends and D or L forms follow the SMILES beside them. Chains are numbered I, II in the order given. *: point of attachment. Stearoyl = CCCCCCCCCCCCCCCCCC(=O)*

Legend:
spleen of BALB/c mice = assay: In vivo delivery of mRNA with CPPs - reporter levels in the spleen; conditions: mRNA, tail vein injection, spleens harvested 16 hours after single injection, whole tissue homogenate
Experimental: FIG. 5: Delivery of mRNA with CPPs in vivo—reporter levels in the spleen. Spleens were harvested post mortem 16 hours post-injection. The reporter levels (RLU) were evaluated from the whole tissue homogenate.
The transfection complexes (CPP/mRNA) were formed using 10 μg of mRNA mixed with each peptide at indicated charge ratios (CRs) in MQ water in a final volume of 100 μl. CRs were calculated theoretically and account for both the positive charges of the peptide and negative charges of the nucleic acid. The transfection complexes (CPP/mRNA and CPP/pDNA) were formed using 50 μg of mRNA mixed with each peptide at indicated charge ratios (CRs) in MQ water in a final volume of 168 μl. The complexes were incubated for 30 minutes at room temperature and then mixed with equal volume of 10% glucose (resulting in a final solution of 5% glucose in a total volume of 200 μl for 10 μg dose groups and 336 μl for 50 μg dose groups) and immediately injected intravenously via the tail vein.
The reporter gene (luciferase) expression levels were evaluated from the tissue homogenate post mortem 16-24 h after single injection.
CPPs and mRNA complexes were injected through the tail vein of BALB/c mice, spleens were harvested 16 hours after the single injection and reporter signal was measured from the whole tissue homogenate (FIG. 5 and Table 5).

CHO-K1 cells = assay: Delivery of reporter mRNA with CPPs in cell culture (luciferase luminescence 24 h post-transfection); type: cell-based; conditions: for Average RLU/mg (reporter levels post-transfection of mRNA): firefly luciferase mRNA, 0.1 μg per well, charge ratio 3:1, serum containing media, 24 h, RLU normalised to total protein in lysate; for Efficiency of mRNA transfection/delivery: FIG. 1 / Table 2, cell culture
Experimental: FIG. 1: Delivery of reporter mRNA with CPPs in cell culture—evaluation of reporter levels post-transfection (relative light units normalised to total protein in the cell lysate (RLU/mg)). Naked mRNA treated cells were used as controls and Lipofectamine3000 (LF3000) was used to compare the transfection efficacy with a liposome-based transfection reagent.
Adherent CHO-K1 cells were grown in Dulbecco's Modified Eagle's Medium (DMEM), which were supplemented with 0.1 mM non-essential amino acids, 1.0 mM sodium pyruvate, 100 U/ml penicillin, and […]. For complete media, 10% (final) fetal bovine serum (FBS) was added. Cells were maintained in a humidified incubator at 37 °C, 5% CO2. Cell viability and confluence was assessed daily and the cell density was reduced regularly. For cell counting, we used the CytoSMART cell counter accompanied by 0.4% trypan blue staining prior measurement. The multi-well plates with cell cultures used for experiments were incubated in a humidified incubator at 37 °C, 5% CO2.
For in vitro experiments 0.1 μg of nucleic acid (plasmid DNA (pDNA) or mRNA) was used per 96-well plate well. For CPP/NA complex formation, the diluted NA was mixed with CPP in water. Complexes were formed based on the theoretical charge ratio (CR) of positive charges from the peptide in excess to the negative charges from nucleic acid backbone, at charge ratio 3:1 with peptide in excess. Commercial reagent Lipofectamine3000 (LF3000) was used according to the manufacturer's recommendations for the transfection of adherent cells.
For reporter luminescence (expressed from firefly luciferase encoding mRNA or plasmid pDNA) assessment in adherent cell culture, 10,000 cells per 96-well plate well were seeded in 100 μl of media one day prior to transfection. Shortly before transfection, cell media was replaced with 100 μl of serum containing (10% foetal bovine serum) DMEM media. CPPs and mRNA or pDNA were mixed at a charge ratio 3:1 in ultrapure water and incubated at room temperature before addition to cells in serum containing media. Cells were transfected with 0.1 μg of mLuc per well.
24 hours post-transfection, the media was aspirated, cells were washed with 1×PBS, and 30 μl of lysis buffer (0.1% Triton X100 in 1×PBS) was added. Cells were incubated with lysis buffer for 20 min. to lyse the cells. From the lysate, 20 μl was transferred to a black frame white well 96-well plate for luminescence measurement after addition of substrate luciferin (PerkinElmer) in buffer. The luminescence signal was detected with GloMax® 96 microplate luminometer equipped with GloMax® 1.9.2 software (Promega). RLU values were converted to RLU/mg by normalization to total protein in cell lysate, reflecting total number of cells. For protein detection, a Pierce™ BCA Protein Assay Kit was used.
The present inventors have previously reported CPPs developed from the NickFect (NF) and PepFect (PF) families for plasmid (pDNA), siRNA and miRNA delivery (see, e.g. WO 2020/144317, WO 2010/039088 and WO 2012/113846). With the emergence of mRNA-based therapeutics, it was decided to investigate peptides for their ability to deliver mRNA. It was assumed that CPPs that are efficient for siRNA and miRNA delivery, e.g. histidine containing CPPs (Porosk et. al. (2019)), may be good candidates for the delivery of mRNA. Therefore, CPPs from each main family (NF55-, PF14- and NF70-derived CPPs) were tested for mRNA delivery/transfection. Naked mRNA treated and untreated cells were used as control groups. LF3000 was used to compare the transfection efficacy of liposome-based transfection reagents with the CPPs (FIG. 1).

[1] = in words; previously reported; cited from earlier work
[2] = in words; previously reported; cited from earlier work; remark: listed apart in the source

Row | Molecule | Reporter levels in the spleen (RLU) (spleen of BALB/c mice) | Average RLU/mg (reporter levels post-transfection of mRNA) (CHO-K1 cells) | Efficiency of mRNA transfection/delivery (CHO-K1 cells; in words) | Delivery of mRNA compared to NF55 (CHO-K1 cells; in words, comparator NF55) | miRNA delivery efficiency [1] | siRNA delivery efficiency [2]
1 | CCCCCCCCCCCCCCCCCC(=O)N[C@@H](C)C(=O)NCC(=O)N[C@@H](Cc1ccc(O)cc1)C(=O)N[C@@H](CC(C)C)C(=O)N[C@@H](CC(C)C)C(=O)NCC(=O)NCCCC[C@H](N)C(=O)N[C@H](C(=O)N[C@@H](CC(N)=O)C(=O)N[C@@H](CC(C)C)C(=O)N[C@@H](CCCCN)C(=O)N[C@@H](C)C(=O)N[C@@H](CC(C)C)C(=O)N[C@@H](C)C(=O)N[C@@H](C)C(=O)N[C@@H](CC(C)C)C(=O)N[C@@H](C)C(=O)N[C@@H](CCCCN)C(=O)N[C@@H](C)C(=O)N[C@H](C(=O)N[C@@H](CC(C)C)C(N)=O)[C@@H](C)CC)[C@@H](C)CC [NF554] (I: H-KINLKALAALAKAIL-NH2 / II: Stearoyl-AGYLLG; amide I:1-II:C) | 83 650 RLU | 1 690 000 000 RLU/mg | the most efficient | improved delivery of mRNA over NF55 |  | 
2 | CCCCCCCCCCCCCCCCCC(=O)N[C@@H](C)C(=O)NCC(=O)N[C@@H](Cc1ccc(O)cc1)C(=O)N[C@@H](CC(C)C)C(=O)N[C@@H](CC(C)C)C(=O)NCC(=O)N[C@@H](CCN)C(=O)N[C@H](C(=O)N[C@@H](CC(N)=O)C(=O)N[C@@H](CC(C)C)C(=O)N[C@@H](CCCCN)C(=O)N[C@@H](C)C(=O)N[C@@H](CC(C)C)C(=O)N[C@@H](C)C(=O)N[C@@H](C)C(=O)N[C@@H](CC(C)C)C(=O)N[C@@H](C)C(=O)N[C@@H](CCCCN)C(=O)N[C@@H](C)C(=O)N[C@H](C(=O)N[C@@H](CC(C)C)C(N)=O)[C@@H](C)CC)[C@@H](C)CC [NF559] | 56 280 RLU | 563 000 000 RLU/mg |  |  |  | 
3 | NF70: SEQ ID NO: 13; HHHHYHHGO*ILLKALKALAKAIL; control/comparator construct [reference compound] | 8 000 RLU | 919 720 RLU/mg | not efficient for mRNA delivery |  | very efficient for siRNA and miRNA delivery | very efficient for siRNA and miRNA delivery; also recorded: the most efficient, even more efficient than NF55
